Data: US20220339187A1, “ANTIMICROBIAL PEPTIDE-SELENIUM NANOPARTICLES” (The University of Melbourne, priority 2019, published 2022)

How the values were obtained:
[1] = tested on: methicillin-sensitive S. aureus ATCC 29213; assay: Resistance development test; type: cell-based, Staphylococcus aureus; details: S. aureus cultured at MBC50 concentration
Description: (§1) First, one S. aureus or E. coli colony from an agar plate was inoculated into 20 mL MHB and cultured overnight at 37° C. The bacterial suspensions were diluted to 2.5×10^6 bacteria/mL. […] After every 48 h, CFU assays were performed on these bacteria, and the MBCs were calculated. The change in MBCs over the generations was plotted.

E. coli ATCC 25922 [2] = assay: Resistance development test; type: cell-based, Escherichia coli; details: E. coli cultured at MBC50 concentration; 312 generations tested
Description: as §1

E. coli ATCC 25922 [3] = assay: Membrane potential change test (BacLight, DiOC2(3)); type: cell-based, Escherichia coli; details: 6.25 or 12.5 μg/ml (CCCP 5 μM)
Description: Membrane potential change was measured using a BacLight Bacterial Membrane Potential Kit (Invitrogen). The bacterial strain methicillin-sensitive S. aureus (MSSA) ATCC 29213, E. faecalis ATCC 29212, E. coli ATCC 25922 were cultured in MHB at 37° C. 50 μL of different concentrations of Se NPs, Se NP-ε-PL or pure ε-PL in PBS solution was added into each well of 96-well microplates. 50 μL MHB with 2.5×10^6 cells/mL bacteria was then added into each well. 50 μL MHB with 2.5×10^6 cells/mL bacteria was added to 50 μL PBS to act as untreated control. Carbonyl cyanide 3-chlorophenylhydrazone (CCCP) was added to untreated control at a final concentration of 5 μM to act as fully depolarized control. 3,3′-Diethyloxacarbocyanine Iodide (DiOC2(3)) was added to all wells at a final concentration of […]. […] The untreated (polarized) and CCCP-treated (fully depolarized) controls were used to determine the percentage of depolarized cells. Two independent experiments were done for this test, and two technical replicates were adopted for each independent experiment.

Compound	generations after which resistance started to develop (rise of MBC) [1] [generations]	generations after which resistance started to develop (rise of MBC) (E. coli ATCC 25922 [2]) [generations]	depolarisation of cell membrane (E. coli ATCC 25922 [3])
NC[C@H]1O[C@H](O[C@H]2[C@H](O)[C@@H](O[C@H]3O[C@H](CO)[C@@H](O)[C@H](N)[C@H]3O)[C@H](N)C[C@@H]2N)[C@H](O)[C@@H](O)[C@@H]1O [kanamycin]	44	52	–
N#CC(C#N)=NNc1cccc(Cl)c1 [CCCP, Carbonyl cyanide 3-chlorophenylhydrazone]	–	–	minimal activity
